From paper PMC10208956, “Microbial peptides activate tumour-infiltrating lymphocytes in glioblastoma” (Nature, 2023)

Columns and labels:
Format in all cases: cell-based, human
[1] = tested on: IPdBP-pre-stimulated peripheral memory CD4+ T cells; experiment: Cytokine/chemokine response of IPdBP-pre-stimulated peripheral memory CD4+ T cells; design: IL-1α / IL-1β / IL-2 / IL-3 / IL-4 / IL-5 / IL-6 / IL-7 / IL-10 / IL-13 / IL-15 / IL-17A / IL-33 / TNF-α: unit not given here
[2] = tested on: bacteria/microbiota-reactive CFSEdim CD4+ TILs; experiment: Proliferation of expanded CFSEdim CD4+ TILs that responded to the bacteria/microbiota peptide pool; conditions: 5 days; 4 replicate wells; Fig. 4d
[3] = tested on: bacteria/microbiota-reactive peripheral CD4+ T cells; experiment: Cytokine/chemokine secretion of selected peripheral CD4+ T cells in response to LRP6; design: IL-1a / IL-1ß / IL-2 / IL-3 / IL-4 / IL-5 / IL-6 / IL-7 / IL-10 / IL-13 / IL-15 / IL-17A / IL-33 / TNF-a: unit not given here
[4] = tested on: CD45RA− peripheral T cells; experiment: Cytokine/chemokine secretion of unselected peripheral CD4+ T cells in response to LRP6; design: IL-1a / IL-1ß / IL-2 / IL-3 / IL-4 / IL-5 / IL-6 / IL-7 / IL-10 / IL-13 / IL-15 / IL-17A / IL-33 / TNF-a: unit not given here; conditions: Unselected CD45RA- PBMCs, sheet 6c (right panel)
[5] = secretion by IPdBP-pre-stimulated peripheral memory CD4+ T cells
[6] = Selected peripheral CD4+, sheet 6c (right panel)

Sequence: HPFALTLFEDILY [LRP6]
- cytokine and chemokine profile of immunopeptidome-reactive peripheral CD4+ T cells (in words) ([1]; Extended Data Fig. 7c): secreted not only GM-CSF but also several other pro-inflammatory cytokines including IFNγ, TNF and granzyme B
- CCL2/MCP-1 [1, 5]: 0
- CCL3/MIP-1α [1, 5]: 3979.57
- CCL4/MIP-1β [1, 5]: 19527
- CCL11/Eotaxin [1, 5]: 3.84
- CCL19/MIP-3β [1, 5]: 12.07
- CCL20/MIP-3α [1, 5]: 17.43
- CD40 Ligand [1, 5]: 4129.61
- CXCL1/GROα [1, 5]: 0
- CXCL2/GROβ [1, 5]: 123.27
- CXCL8/IL-8 [1, 5]: 3466.89
- CXCL10/IP-10 [1, 5]: 353.48
- Flt-3 Ligand [1, 5]: 131.58
- GM-CSF [1, 5]: 8661.95
- Granzyme B [1, 5]: 7766.97
- IFN-α [1, 5]: 8.01
- IFN-γ [1, 5]: 1163.95
- IL-1rα [1, 5]: 0
- IL-1α [1, 5]: 19.6
- IL-1β [1, 5]: 20.52
- IL-2 [1, 5]: 11.3
- IL-3 [1, 5]: 158.99
- IL-4 [1, 5]: 7.36
- IL-5 [1, 5]: 1023.08
- IL-6 [1, 5]: 217.73
- IL-7 [1, 5]: 2.53
- IL-10 [1, 5]: 4192.28
- IL-12p70 [1, 5]: 24.59
- IL-13 [1, 5]: 3507.83
- IL-15 [1, 5]: 4.26
- IL-17A [1, 5]: 4.67
- IL-17E/IL-25 [1, 5]: 0
- IL-33 [1, 5]: 22.2
- RANTES [1, 5]: 10050.3
- TNF-α [1, 5]: 3505.52
- recognition by CD4+ TILs pre-stimulated with the bacteria/microbiota peptide pool, by proliferation and/or GM-CSF secretion (in words) [2]: recognized
- CCL2/MCP-1 [3, 6]: 4526.33
- CCL3/MIP-1a [3, 6]: 3125.42
- CCL4/MIP-1ß [3, 6]: 4031.29
- CCL11/Eotaxin [3, 6]: 4.67
- CCL19/MIP-3ß [3, 6]: 6.3
- CCL20/MIP-3a [3, 6]: 6.57
- CD40 Ligand [3, 6]: 1738.81
- CXCL1/GROa [3, 6]: 373.82
- CXCL2/GROß [3, 6]: 350.46
- CXCL8/IL-8 [3, 6]: 2606.08
- CXCL10/IP-10 [3, 6]: 147.39
- Flt-3 Ligand [3, 6]: 28.81
- GM-CSF [3, 6]: 1627.51
- Granzyme B [3, 6]: 2119.45
- IFN-a [3, 6]: 1.01
- IFN-γ [3, 6]: 159.02
- IL-1a [3, 6]: 15.17
- IL-1ra [3, 6]: 3794.38
- IL-1ß [3, 6]: 23.43
- IL-2 [3, 6]: 10.94
- IL-3 [3, 6]: 107.37
- IL-4 [3, 6]: 4.49
- IL-5 [3, 6]: 283.76
- IL-6 [3, 6]: 167.44
- IL-7 [3, 6]: 0.7
- IL-10 [3, 6]: 475.26
- IL-12p70 [3, 6]: 16.63
- IL-13 [3, 6]: 400.29
- IL-15 [3, 6]: 2.76
- IL-17A [3, 6]: 0
- IL-17E/IL-25 [3, 6]: 0
- IL-33 [3, 6]: 5.21
- RANTES [3, 6]: 798.34
- TNF-a [3, 6]: 1408.41
- cytokine and chemokine production of selected peripheral CD4+ T cells (in words) ([3]; compared with the unselected cells, Extended Data Fig. 6c right): produced various cytokines and chemokines
- CCL2/MCP-1 [4]: 0
- CCL3/MIP-1a [4]: 38350.7
- CCL4/MIP-1ß [4]: 1401.95
- CCL11/Eotaxin [4]: 0
- CCL19/MIP-3ß [4]: 0
- CCL20/MIP-3a [4]: 6.73
- CD40 Ligand [4]: 1116.41
- CXCL1/GROa [4]: 804.34
- CXCL2/GROß [4]: 0
- CXCL8/IL-8 [4]: 0
- CXCL10/IP-10 [4]: 0
- Flt-3 Ligand [4]: 15.31
- GM-CSF [4]: 488.27
- Granzyme B [4]: 0
- IFN-a [4]: 1.18
- IFN-γ [4]: 0
- IL-1a [4]: 104.35
- IL-1ra [4]: 0
- IL-1ß [4]: 600.74
- IL-2 [4]: 0
- IL-3 [4]: 1.65
- IL-4 [4]: 0
- IL-5 [4]: 0
- IL-6 [4]: 20465.9
- IL-7 [4]: 0.54
- IL-10 [4]: 27.41
- IL-12p70 [4]: 9.74
- IL-13 [4]: 0
- IL-15 [4]: 1.25
- IL-17A [4]: 0
- IL-17E/IL-25 [4]: 0
- IL-33 [4]: 7.76
- RANTES [4]: 0
- TNF-a [4]: 67.2
